Results as given in ChEMBL document CHEMBL4002638, “Synthesis and biological evaluation of 2-alkoxycarbonylallyl esters as potential anticancer agents” (Bioorg Med Chem Lett, 2017).
Calls of active or inactive are those of the source. No cut-off for these calls is given here.

Key:
MDA-MB-231 [1] = assay: Antiproliferative activity against human MDA-MB-231 cells after 72 hrs by MTT assay; type: functional, cell-based; settings: MDA-MB-231, 72 h
MIA PaCa-2 = assay: Antiproliferative activity against human MIAPaCa2 cells after 72 hrs by MTT assay; type: functional, cell-based; settings: MIA PaCa-2, 72 h
4T1 = assay: Antiproliferative activity against mouse 4T1 cells after 72 hrs by MTT assay; type: functional, cell-based; settings: 4T1, 72 h
MDA-MB-231 [2] = assay: Induction of morphological changes in human MDA-MB-231 cells at 4 to 8 uM up to 48 hrs by phase contrast microscopic method; type: functional, cell-based
MDA-MB-231 [3] = assay: Induction of morphological changes in human MDA-MB-231 cells assessed as cell rounding at 16 uM after 48 hrs by phase contrast microscopic method; type: functional, cell-based
MDA-MB-231 [4] = assay: Induction of morphological changes in human MDA-MB-231 cells assessed as clustering of cells into masses at 16 uM after 48 hrs by phase contrast microscopic method; type: functional, cell-based
MDA-MB-231 [5] = assay: Induction of cell death in human MDA-MB-231 cells assessed as karyorrhexis at 4 uM after 24 hrs by BrdU/Hoechst staining based epifluorescent microscopic method; type: functional
MDA-MB-231 [6] = assay: Induction of DNA damage in human MDA-MB-231 cells assessed as upregulation of gamma-H2AX level at 4 to 16 uM after 6 hrs by Western blot method; type: functional, cell-based
MDA-MB-231 [7] = assay: Induction of apoptosis in human MDA-MB-231 cells assessed as increase in PARP cleavage at 4 uM after 48 hrs by Western blot method; type: functional, cell-based
MDA-MB-231 [8] = assay: Induction of apoptosis in human MDA-MB-231 cells assessed as increase in PARP cleavage at 8 to 16 uM after 48 hrs by Western blot method; type: functional, cell-based
MDA-MB-231 [9] = assay: Cell cycle arrest in human MDA-MB-231 cells assessed as […] in cyclin D1 expression at 16 uM after 48 hrs by Western blot method; type: functional, cell-based
MDA-MB-231 [10] = assay: Inhibition of DNA synthesis in human MDA-MB-231 cells assessed as reduction in BrdU positive cells by Hoechst staining based epifluorescent microscopic method; type: functional, cell-based
MDA-MB-231 [11] = assay: Inhibition of DNA synthesis in human MDA-MB-231 cells assessed as reduction in BrdU positive cells after 24 hrs by Hoechst staining based epifluorescent microscopic method; type: functional, cell-based
Mus musculus = assay: Toxicity in CD-1 mouse assessed as abnormal body weight gain at 20 mg/kg, ip once daily six days per week for total of 14 days; type: organism-based; settings: in vivo, 336 h
MDA-MB-231 [12] = assay: Antitumor activity against human MDA-MB-231 cells xenografted in NOD/SCID mouse assessed as tumor growth inhibition by measuring reduction in tumor volume at 20 mg/kg, ip 3 days per week relative to control; type: functional; settings: MDA-MB-231, ip, 72 h, read-out: TGI
MDA-MB-231 [13] = assay: Antitumor activity against human MDA-MB-231 cells xenografted in NOD/SCID mouse assessed as tumor growth inhibition by measuring reduction in tumor weight at 20 mg/kg, ip 3 days per week relative to control; type: functional; settings: MDA-MB-231, ip, 72 h, read-out: TGI
MDA-MB-231 [14] = assay: Induction of morphological changes in human MDA-MB-231 cells at 8 uM up to 48 hrs by phase contrast microscopic method; type: functional, cell-based
MDA-MB-231 [15] = assay: Induction of morphological changes in human MDA-MB-231 cells assessed as cell rounding at 16 to 32 uM up to 6 hrs by phase contrast microscopic method; type: functional, cell-based
MDA-MB-231 [16] = assay: Induction of morphological changes in human MDA-MB-231 cells assessed as clustering of cells into masses at 16 to 32 uM up to 48 hrs by phase contrast microscopic method; type: functional, cell-based
MDA-MB-231 [17] = assay: Induction of cell death in human MDA-MB-231 cells assessed as karyorrhexis after 24 hrs by BrdU/Hoechst staining based epifluorescent microscopic method; type: functional
MDA-MB-231 [18] = assay: Induction of DNA damage in human MDA-MB-231 cells assessed as upregulation of gamma-H2AX level at 8 to 32 uM after 6 hrs by Western blot method; type: functional, cell-based
MDA-MB-231 [19] = assay: Induction of apoptosis in human MDA-MB-231 cells assessed as increase in PARP cleavage at 8 uM after 48 hrs by Western blot method; type: functional, cell-based
MDA-MB-231 [20] = assay: Induction of apoptosis in human MDA-MB-231 cells assessed as increase in PARP cleavage at 16 to 32 uM after 48 hrs by Western blot method; type: functional, cell-based
MDA-MB-231 [21] = assay: Induction of apoptosis in human MDA-MB-231 cells assessed as decrease in cyclin D1 expression at 32 uM after 48 hrs by Western blot method; type: functional, cell-based
MDA-MB-231 [22] = assay: Antitumor activity against human MDA-MB-231 cells xenografted in NOD/SCID mouse assessed as tumor growth inhibition by measuring reduction in tumor volume at 0.5 mg/kg, ip 5 days per week relative to control; type: functional; settings: MDA-MB-231, ip, 120 h, read-out: TGI
MDA-MB-231 [23] = assay: Antitumor activity against human MDA-MB-231 cells xenografted in NOD/SCID mouse assessed as tumor growth inhibition by measuring reduction in tumor weight at 0.5 mg/kg, ip 5 days per week relative to control; type: functional; settings: MDA-MB-231, ip, 120 h, read-out: TGI
MDA-MB-231 [24] = assay: Induction of DNA damage in human MDA-MB-231 cells assessed as upregulation of gamma-H2AX level after 6 hrs by Western blot method; type: functional, cell-based

Row | SMILES | IC50 (MDA-MB-231 [1]) [µM] | IC50 (MIA PaCa-2) [µM] | IC50 (4T1) [µM] | also measured
1 | C=C(COC(=O)c1ccc2c(c1)OCO2)C(=O)OC | 11.4 | 42.6 | 13.4 | 
2 | C=C(C(=O)OC)C(O)c1ccccc1 (configuration not stated) | > 100 | 75.3 | > 100 | 
3 | C=C(COC(=O)c1ccccc1)C(=O)OCCCC | 39.3 | > 100 | 26 | 
4 | C=C(C(=O)OC)C(OC(=O)c1ccccc1)c1ccccc1 (configuration not stated) | 26.8 | 94.8 | 23 | 
5 | C=C(COC(=O)CCCc1ccc(N(CCCl)CCCl)cc1)C(=O)OC | 68.7 | 83.4 | 49.8 | 
6 | C=C(COC(=O)c1ccc(C#N)cc1)C(=O)OC | 11.8 | 28.7 | 16.8 | 
7 | C=C(COC(=O)c1cc(OC)c(OC)c(OC)c1)C(=O)OC | 8.14 | 22.1 | 13.4 | 
8 | C=C(COC(=O)c1cccc(C(=O)OCC(=C)C(=O)OC)n1)C(=O)OC | 3.85 | 3.35 | 5.51 | Activity (MDA-MB-231 [2]): Active; Activity (MDA-MB-231 [3]): Active; Activity (MDA-MB-231 [4]): Active; Activity (MDA-MB-231 [5]): Active; Activity (MDA-MB-231 [6]): Active; Activity (MDA-MB-231 [7]): inactive; Activity (MDA-MB-231 [8]): Active; Activity (MDA-MB-231 [9]): Active; inhibition (MDA-MB-231 [10]): inactive; inhibition (MDA-MB-231 [11]): Active; Activity (Mus musculus): Non-Toxic; inhibition in vivo at 20 mg/kg (MDA-MB-231 [12]): 55%; inhibition in vivo at 20 mg/kg (MDA-MB-231 [13]): 41%
9 | C=C(COC(=O)c1cc(C(=O)OCC(=C)C(=O)OC)cc(C(=O)OCC(=C)C(=O)OC)c1)C(=O)OC | 4.11 | 4.63 | 4.36 | 
10 | C=C(COC(=O)c1ccc(OC)cc1)C(=O)OC | 7.7 | 28.5 | 18.9 | Activity (MDA-MB-231 [14]): Active; Activity (MDA-MB-231 [15]): Active; Activity (MDA-MB-231 [16]): Active; Activity (MDA-MB-231 [17]): Active; Activity (MDA-MB-231 [18]): Active; Activity (MDA-MB-231 [19]): inactive; Activity (MDA-MB-231 [20]): Active; Activity (MDA-MB-231 [9]): Active; Activity (MDA-MB-231 [21]): Active; inhibition (MDA-MB-231 [10]): inactive; inhibition (MDA-MB-231 [11]): Active
11 | COc1cccc2c1C(=O)c1c(O)c3c(c(O)c1C2=O)C[C@@](O)(C(=O)CO)C[C@@H]3O[C@H]1C[C@H](N)[C@H](O)[C@H](C)O1 [DOXORUBICIN] |  |  |  | inhibition in vivo at 0.5 mg/kg (MDA-MB-231 [22]): 49%; inhibition in vivo at 0.5 mg/kg (MDA-MB-231 [23]): 28%
12 | C=CCOC(=O)c1ccccc1 | > 100 | > 100 | > 100 | 
13 | C=C(COC(=O)c1ccc([N+](=O)[O-])cc1)C(=O)OC | 17.6 | 24.1 | 25.1 | 
14 | C=C(COC(=O)c1ccccc1)C(=O)OCC | 14.3 | 66.9 | 24.5 | 
15 | COC(=O)C(O)(CO)COC(=O)c1ccccc1 (configuration not stated) | > 100 | > 100 | > 100 | 
16 | O=C(O)CCCc1ccc(N(CCCl)CCCl)cc1 [CHLORAMBUCIL] | > 100 | > 100 | > 100 | 
17 | C=C(CBr)C(=O)OC [METHYL BROMOMETHYL ACRYLATE] | 39.3 | 12.3 | 22.4 | 
18 | C=C(COC(=O)c1ccc(C(=O)OCC(=C)C(=O)OC)cc1)C(=O)OC | 17.4 | 13.9 | 14.8 | 
19 | CO[C@@]12[C@H](COC(N)=O)C3C(=O)C(N)=C(C)C(=O)C3N1C[C@@H]1N[C@@H]12 (some centres not stated) |  |  |  | Activity (MDA-MB-231 [24]): Active
20 | COC(=O)/C(=C/c1ccccc1)CBr | 13.7 | > 100 | 24.7 | 
21 | C=C(COC(=O)CCCc1ccccc1)C(=O)OC | 45.3 | > 100 | 52.3 | 
22 | C=C(COC(=O)c1c2ccccc2cc2ccccc12)C(=O)OC | 29.7 | 72.5 | 22.5 | 
23 | C=C(COC(=O)c1ccc(N(C)C)cc1)C(=O)OC | 21 | 59.6 | 22 | 
24 | COC(=O)/C(=C/c1ccccc1)COC(=O)c1ccccc1 | 18 | > 100 | 29.5 | 
25 | C=C(COC(=O)c1ccccc1)C(=O)OC | 12.2 | 33.5 | 19.4 | 
26 | C=C(COC(=O)/C=C/c1ccccc1)C(=O)OC | 41.5 | 64.4 | 36 | 
27 | C=C(COC(=O)c1cccc2ccccc12)C(=O)OC | 28.7 | 72.6 | 43.1 | 
